Experimental data published in ChEMBL document CHEMBL4715789, “Identification of a Potential Antimalarial Drug Candidate from a Series of 2-Aminopyrazines by Optimization of Aqueous Solubility and Potency across the Parasite Life Cycle” (J Med Chem, 2016).
≈ marks a conversion by molar mass, not a printed value.

Legend:
[1] = Aqueous solubility of compound in pH 2 0.01M HCl incubated for 2 hrs under shaking condition by shake-flask method based HPLC-DAD analysis; format: physicochemical
Plasmodium berghei [2] = experiment: Antiplasmodial activity against Plasmodium berghei ANKA infected in NMRI mouse assessed as reduction in parasitemia at 3 mg/kg, po qd for 4 consecutive days measured at day 7 post infection by flow cytometry analysis; format: functional; parameters: scale not given: the % may be the effect or the level left; settings: time 4 day
Plasmodium falciparum [3] = experiment: microbe, parasite or virus in culture; settings: NF54, Erythrocyte
Description: Antiplasmodial activity against multidrug-sensitive Plasmodium falciparum NF54 infected in human erythrocytes assessed as reduction in [3H]hypoxanthine incorporation preincubated for 48 hrs followed by [3H]hypoxanthine addition and measured after 24 hrs by liquid scintillation counting method

Plasmodium berghei [4] = experiment: Antiplasmodial activity against Plasmodium berghei ANKA infected in NMRI mouse model assessed as mean survival days at 3 mg/kg, po qd for 4 consecutive day; format: functional; settings: time 4 day
[5] = Aqueous solubility of compound in pH 6.5 PBS incubated for 2 hrs under shaking condition by shake-flask method based HPLC-DAD analysis; format: physicochemical
Plasmodium falciparum [6] = experiment: microbe, parasite or virus in culture; settings: K1, Erythrocyte
Description: Antiplasmodial activity against multidrug-resistant Plasmodium falciparum K1 infected in erythrocytes assessed as reduction in [3H]hypoxanthine incorporation preincubated for 48 hrs followed by [3H]hypoxanthine addition and measured after 24 hrs by liquid scintillation counting method

[7] = Metabolic stability in mouse liver microsomes assessed as compound remaining at 0.1 uM measured after 30 mins in presence of cofactor NADPH by LC-MS/MS analysis; format: ADME, Microsome; settings: read-out: Stabilty
[8] = Metabolic stability in rat liver microsomes assessed as compound remaining at 0.1 uM measured after 30 mins in presence of cofactor NADPH by LC-MS/MS analysis; format: ADME, Microsome; settings: read-out: Stabilty
[9] = Metabolic stability in human liver microsomes assessed as compound remaining at 0.1 uM measured after 30 mins in presence of cofactor NADPH by LC-MS/MS analysis; format: ADME, Microsome; settings: read-out: Stabilty
[10] = Cmax(app) in NMRI mouse plasma infected with Plasmodium berghei ANKA at 3 mg/kg, po qd for 4 consecutive days and measured post last dose; format: ADME, organism-based; settings: time 4 day
Plasmodium berghei [11] = experiment: Antiplasmodial activity against Plasmodium berghei ANKA infected in NMRI mouse model assessed as mean survival days at 10 mg/kg, po qd for 4 consecutive day; format: functional; settings: time 4 day
[12] = biological target: Voltage-gated inwardly rectifying potassium channel KCNH2 (Homo sapiens, UniProt Q12809); experiment: Inhibition of human ERG by IonWorks patch clamp electrophysiology method
Chain of Voltage-gated inwardly rectifying potassium channel KCNH2 (Q12809 whole entry): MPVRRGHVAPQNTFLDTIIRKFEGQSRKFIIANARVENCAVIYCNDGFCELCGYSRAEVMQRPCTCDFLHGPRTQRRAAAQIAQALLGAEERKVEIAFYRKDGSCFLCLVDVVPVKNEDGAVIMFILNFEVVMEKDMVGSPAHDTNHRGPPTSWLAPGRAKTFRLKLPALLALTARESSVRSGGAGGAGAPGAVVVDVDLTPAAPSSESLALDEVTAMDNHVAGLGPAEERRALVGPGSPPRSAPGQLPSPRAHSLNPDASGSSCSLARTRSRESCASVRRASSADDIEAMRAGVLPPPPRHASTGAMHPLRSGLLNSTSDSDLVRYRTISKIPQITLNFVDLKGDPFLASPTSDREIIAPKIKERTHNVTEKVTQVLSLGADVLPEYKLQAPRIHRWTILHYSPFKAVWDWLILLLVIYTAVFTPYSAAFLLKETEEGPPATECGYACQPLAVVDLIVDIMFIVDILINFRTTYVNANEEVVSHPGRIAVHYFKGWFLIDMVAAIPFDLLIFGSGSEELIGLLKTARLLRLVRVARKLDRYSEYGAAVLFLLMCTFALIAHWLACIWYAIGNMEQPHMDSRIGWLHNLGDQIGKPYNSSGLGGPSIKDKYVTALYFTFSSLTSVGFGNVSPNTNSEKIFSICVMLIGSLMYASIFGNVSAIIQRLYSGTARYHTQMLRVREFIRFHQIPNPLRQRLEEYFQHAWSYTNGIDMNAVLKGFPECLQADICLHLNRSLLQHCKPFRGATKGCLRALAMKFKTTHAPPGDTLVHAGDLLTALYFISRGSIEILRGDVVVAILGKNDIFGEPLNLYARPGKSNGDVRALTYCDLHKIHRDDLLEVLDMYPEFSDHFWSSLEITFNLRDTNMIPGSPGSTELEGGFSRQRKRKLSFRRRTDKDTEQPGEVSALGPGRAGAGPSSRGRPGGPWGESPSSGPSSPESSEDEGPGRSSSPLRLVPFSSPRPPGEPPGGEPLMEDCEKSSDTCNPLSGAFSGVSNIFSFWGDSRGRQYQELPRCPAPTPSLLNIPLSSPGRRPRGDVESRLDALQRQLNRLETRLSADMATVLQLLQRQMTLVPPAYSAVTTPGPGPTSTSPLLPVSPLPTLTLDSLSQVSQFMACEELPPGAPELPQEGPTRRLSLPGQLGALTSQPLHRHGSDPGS

Plasmodium berghei [13] = experiment: Antiplasmodial activity against Plasmodium berghei ANKA infected in NMRI mouse assessed as reduction in parasitemia at 10 mg/kg, po qd for 4 consecutive days measured at day 7 post infection by flow cytometry analysis; format: functional; parameters: scale not given: the % may be the effect or the level left; settings: time 4 day
[14] = Selectivity index, ratio of IC50 for cytotoxicity against CHO cells by MTT assay to IC50 for antiplasmodial activity against multidrug-sensitive Plasmodium falciparum NF54 infected in human erythrocytes; format: toxicity, cell-based; settings: Chinese hamster, read-out: Ratio IC50

SMILES | solubility thermodynamic at 2 h [1] [µM] | Activity (Plasmodium berghei [2]) [%] | IC50 (Plasmodium falciparum [3]) [nM] | MSD (Plasmodium berghei [4]) [days] | solubility thermodynamic at 2 h [5] [µM] | IC50 (Plasmodium falciparum [6]) [nM] | remaining at 0.5 h, 0.1 µM [7] [%] | remaining at 0.5 h, 0.1 µM [8] [%] | remaining at 0.5 h, 0.1 µM [9] [%] | Cmax [10] [nM] | MSD (Plasmodium berghei [11]) [days] | IC50 [12] [nM] | Activity (Plasmodium berghei [13]) [%] | selectivity ratio [14]
Nc1ncc(-c2ccc(C(=O)N3CCC(N)CC3)cc2)nc1-c1ccc(C(F)(F)F)nc1 | 200 (≈ 88.5 µg/mL) | 41 | 20 | 6 | 163 (≈ 72.1 µg/mL) | 18 |  |  |  |  |  |  |  | 
COC(=O)c1ccc(-c2cnc(N)c(-c3ccc(C(F)(F)F)cc3)n2)cc1 | < 5 |  | 2630 |  | < 5 |  |  |  |  |  |  |  |  | 
CNC(=O)c1ccc(-c2nc(-c3ccc(C(N)=O)cc3)cnc2N)cc1 | 186 (≈ 64.6 µg/mL) |  | 52 |  | 178 (≈ 61.8 µg/mL) | 52 |  |  |  |  |  |  |  | 
Nc1ccc(-c2cnc(N)c(-c3ccc(C(F)(F)F)nc3)n2)cn1 | 199 (≈ 66.1 µg/mL) |  |  |  | 34 (≈ 11.3 µg/mL) |  | > 90 | > 90 | > 90 |  |  |  |  | 
CN1CCN(C(=O)c2ccc(-c3cnc(N)c(-c4ccc(C(F)(F)F)cc4)n3)cc2)CC1 |  |  | 7.9 | 12 |  | 6.8 | > 90 | > 90 | > 90 | 1600 | 26 |  |  | 
NC(=O)c1ccc(-c2cnc(N)c(-c3ccc(C(N)=O)cc3)n2)cc1 |  |  | 25 |  |  | 21 |  |  |  |  |  |  |  | 
CN1CCN(C(=O)c2ccc(-c3cnc(N)c(-c4ccc(C(F)(F)F)nc4)n3)cc2)CC1 | 200 (≈ 88.5 µg/mL) | 81 | 9.9 | 7 | 182 (≈ 80.5 µg/mL) | 9.9 | > 90 | > 90 | > 90 |  | 8 |  |  | 
Nc1ncc(-c2ccc(C(F)(F)F)nc2)nc1-c1ccc(C(F)(F)F)nc1 |  |  |  |  |  |  | > 90 | > 90 | > 90 |  |  |  |  | 
Nc1ncc(-c2ccc(C(=O)N3CCC(O)C3)cc2)nc1-c1ccc(C(F)(F)F)nc1 (centres undefined) | 200 (≈ 85.9 µg/mL) | 61 | 18 | 7 | 155 (≈ 66.6 µg/mL) | 12 |  |  |  |  |  |  |  | 
NC(=O)c1ccc(-c2cnc(N)c(-c3ccc(C(F)(F)F)nc3)n2)nc1 | 123 (≈ 44.3 µg/mL) |  | 1580 |  | < 5 |  |  |  |  |  |  |  |  | 
Nc1ncc(-c2ccc(C(=O)N3CCC(N)CC3)cc2)nc1-c1ccc(C(F)(F)F)cc1 | 200 (≈ 88.3 µg/mL) | 65 | 10 | 7 | 88 (≈ 38.8 µg/mL) | 7.5 |  |  |  |  |  |  |  | 
CN1CCCN(C(=O)c2ccc(-c3cnc(N)c(-c4ccc(C(F)(F)F)nc4)n3)cc2)CC1 | 200 (≈ 91.3 µg/mL) |  | 15 | 12 | 85 (≈ 38.8 µg/mL) | 9.9 | > 90 | > 90 | > 90 |  |  |  |  | 
CC(C)(C)N1CCN(C(=O)c2ccc(-c3cnc(N)c(-c4ccc(C(F)(F)F)cc4)n3)cc2)CC1 | 200 (≈ 96.7 µg/mL) |  | 17 |  | 95 (≈ 45.9 µg/mL) | 11 |  |  |  |  |  | 2000 |  | 
Nc1ncc(-c2ccc(C(=O)N3CC[C@H](O)C3)cc2)nc1-c1ccc(C(F)(F)F)cc1 | 93 (≈ 39.8 µg/mL) |  | 6 | 8 | 68 (≈ 29.1 µg/mL) |  | > 90 | > 90 | > 90 |  | 16 |  | 100 | 
N#Cc1ccc(-c2cnc(N)c(-c3ccc(C(F)(F)F)nc3)n2)nc1 |  |  | 2710 |  |  |  |  |  |  |  |  |  |  | 
N#Cc1ccc(-c2cnc(N)c(-c3ccc(C(N)=O)cc3)n2)cc1 |  |  | 57 |  |  | 44 |  |  |  |  |  |  |  | 
NC(=O)c1ccc(-c2cnc(N)c(-c3ccc(C(F)(F)F)nc3)n2)cn1 | 7 (≈ 2.52 µg/mL) | 97.5 | 5.2 | 7 | 5 (≈ 1.8 µg/mL) | 7.2 | > 90 | > 90 | > 90 |  | 14 |  | 99.9 | > 1800
Nc1ncc(-c2ccc(C(=O)N3CCCNCC3)cc2)nc1-c1ccc(C(F)(F)F)cc1 | 190 (≈ 83.9 µg/mL) | 88 | 7.7 | 11 | 128 (≈ 56.5 µg/mL) | 6.3 |  |  |  |  |  |  |  | 
N#Cc1ccc(-c2cnc(N)c(-c3ccc(N)nc3)n2)cc1 | 208 (≈ 60 µg/mL) |  | 222 |  | < 5 | 149 | > 90 | > 90 | > 90 |  |  |  |  | 
Nc1ncc(-c2ccc(C(=O)N3CCCNCC3)cc2)nc1-c1ccc(C(F)(F)F)nc1 | 200 (≈ 88.5 µg/mL) | 55 | 12.7 | 7 | 146 (≈ 64.6 µg/mL) | 10.2 |  |  |  |  |  |  |  | 
Nc1ncc(-c2ccc(C(=O)N3CCNCC3)cc2)nc1-c1ccc(C(F)(F)F)nc1 | 200 (≈ 85.7 µg/mL) | <40 | 9.1 |  | 198 (≈ 84.8 µg/mL) | 7.7 | > 90 | > 90 | > 90 |  |  |  |  | 
CS(=O)(=O)c1ccc(-c2cnc(N)c(-c3ccc(N)nc3)n2)cc1 | 206 (≈ 70.3 µg/mL) |  | 38 |  | 149 (≈ 50.9 µg/mL) | 27 | > 90 | > 90 | > 90 |  |  |  |  | 
Nc1ccc(-c2nc(-c3ccc(C(=O)N4CCNCC4)cc3)cnc2N)cn1 | 189 (≈ 71 µg/mL) |  | 51 |  | 186 (≈ 69.8 µg/mL) | 37 |  |  |  |  |  |  |  | 
Nc1ccc(-c2cnc(N)c(-c3ccc(N)nc3)n2)cn1 |  |  | 203 |  |  | 143 | > 90 | > 90 | > 90 |  |  |  |  | 
Nc1ncc(-c2ccc(C(=O)N3CCC(N)C3)cc2)nc1-c1ccc(C(F)(F)F)nc1 (centres undefined) | 200 (≈ 85.7 µg/mL) | 47 | 40 | 7 | 116 (≈ 49.7 µg/mL) | 26 |  |  |  |  |  |  |  | 
Nc1ccc(-c2nc(-c3ccc(S(=O)(=O)C4CC4)cc3)cnc2N)cn1 | 212 (≈ 77.9 µg/mL) |  | 38 |  | 13 (≈ 4.78 µg/mL) | 44 | > 90 | > 90 | > 90 |  |  |  |  | 
